Experimental data as given in US7307102B2, “Method of preventing or treating estrogen-dependent diseases and disorders” (Duke University, priority 1997, dated 2007).

Key:
ER-TAF1 = assay: C3 promoter-luciferase cotransfection assay in HepG2 cells, ER-TAF1 (AF-2 disrupted); type: cell-based, human
Description: (§1) FIGS. 1A and 1B. […] The human C3 promoter (−1807 to +58) fused to the firefly luciferase reporter gene was transfected along with an expression plasmid containing (FIG. 1A) the wild-type human estrogen receptor (ERwt), or (FIG. 1B) a mutated ER in which the AF-2 function had been disrupted (ER-TAFl) into HepG2 cells and tested for transcriptional activation in the presence of increasing concentrations of ER-modulator as indicated. Transfections were normalized for efficiency and cell number by cotransfecting an expression plasmid containing β-galactosidase. The normalized response was obtained by dividing light units by the activity of β-galactosidase as measured in an enzymatic assay. Triplicate transfections were performed. The data shown are representative of multiple experiments performed under similar conditions.
(§2) FIGS. 2A-2C. […] FIG. 2A. […] FIG. 2B. […] FIG. 2C. […] Transfections were normalized for efficiency and cell number by cotransfecting an expression plasmid containing β-galactosidase. The normalized response was obtained by dividing light units by the activity of β-galactosidase as measured in an enzymatic assay. Representative assays are shown in which triplicate transfections were performed. Error bars represent the standard error of the mean (SEM).
(§3) HepG2 cells were maintained in Modified Eagles Medium (MEM) (Life Technologies, Grand Island, N.Y.) plus 10% Fetal Calf Serum (FCS) (Life Technologies). Cells were plated in 24 well plates (coated with gelatin) 24 hours prior to transfection. DNA was introduced into the cells using Lipofectin (Life Technologies). Briefly, triplicate transfections were performed using 3 μg of total DNA. For standard transfections, 500 ng of pCMV-β-Gal (normalization vector), 1500 ng reporter (variable) and 1000 ng receptor (pRST7-hER (Dana et al, Mol. Endocrinol. 8:1193-1207 (1994)) were used for each triplicate. Incubation of the cells with Lipofectin proceeded for 3 hrs, at which time media was removed, cells were washed with PBS and then induced with the appropriate hormone diluted in phenol red-free media containing 10% charcoal stripped CS (Cyclone Inc.). Incubation with hormone continued for 48 hrs, after which cells were lysed and assayed for luciferase and β-galactosidase activity as previously described (Norris et al, JBC 270:22777-22782 (1995)).
(§4) A series of in vitro screens have been developed that permit the classification of ER-modulators into four mechanistically distinct groups (Tzukerman et al, Mol. Endocrinol. 8:21-30 (1994)). […] Using these assays, it has been possible to derive “fingerprints” of known ER-modulators (McDonnell et al, Mol. Endocrinol. 9:659-669 (1995)).
(§5) Subsequently, the transfected cells were assayed for luceriferase and β-galactosidase activity. Each data point in this experiment represents the average of triplicate determinations of the transcriptional activity under given experimental conditions.

[1] = target: T1, wild-type human estrogen receptor (ERwt) (Homo sapiens, UniProt P03372); assay: C3 promoter-luciferase cotransfection assay in HepG2 cells, ERwt; type: cell-based
T1 construct: expressed in transfected cells; host or cells: HepG2
T1 sequence (P03372 1-595): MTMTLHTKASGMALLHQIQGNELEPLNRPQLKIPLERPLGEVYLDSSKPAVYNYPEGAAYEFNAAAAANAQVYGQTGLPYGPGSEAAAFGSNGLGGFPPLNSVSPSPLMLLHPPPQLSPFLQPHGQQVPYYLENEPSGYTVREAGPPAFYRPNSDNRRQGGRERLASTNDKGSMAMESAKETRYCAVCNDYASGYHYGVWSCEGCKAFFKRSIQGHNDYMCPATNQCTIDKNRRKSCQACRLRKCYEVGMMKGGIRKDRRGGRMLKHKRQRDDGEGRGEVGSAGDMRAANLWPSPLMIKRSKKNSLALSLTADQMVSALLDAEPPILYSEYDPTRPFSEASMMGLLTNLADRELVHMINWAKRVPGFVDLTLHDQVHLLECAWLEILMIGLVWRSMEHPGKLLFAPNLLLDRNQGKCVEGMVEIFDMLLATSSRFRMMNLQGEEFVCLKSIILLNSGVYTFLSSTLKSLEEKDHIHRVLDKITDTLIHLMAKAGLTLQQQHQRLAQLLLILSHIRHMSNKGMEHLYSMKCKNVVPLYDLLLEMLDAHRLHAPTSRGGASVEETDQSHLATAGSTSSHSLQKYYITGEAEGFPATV
Description: as §1, §2, §3, §4, §5

[2] = Uterotrophic assay in immature rats
Method: FIG. 5. […] The data shown represent the mean value (±SEM).
Twenty-one day old female Sprague-Dawley rats (30-35 gms) were obtained from Harlan or Taconic Laboratories. Animals were sorted randomly into treatment groups of five, and average weights were recorded for each treatment group. Weights were recorded on each treatment day. […] On day of dosing, drug was diluted in 0.5% methyl cellulose, viscosity of 2% at 25° C.:400 centipoises (Sigma, St. Louis, Mo.)). Oral dosing by gavage was based on a total volume of 10 ml/kg body weight. […] Subcutaneous dosing was based on a total of 2 ml/kg body weight. […] On day 4, animals were sacrificed by C02 asphyxiation, body weights were obtained and uteri were removed, blotted and weighed. Data were expressed as uterine weight/body weight.
In this assay, uterine wet weight was used as a measure of ER-agonist activity in this tissue (FIG. 5).

[3] = test system: MCF-7 breast cancer tumors; assay: Antiestrogen treatment of MCF-7 breast cancer tumors in nude mice (Example 4); type: in vivo, mouse; conditions: two highest doses of GW5638 (0.6 mg, 1.0 mg) vs 1.0 mg tamoxifen, FIG. 9
Method: FIG. 9. Effect of anti-estrogen treatment on MCF-7 breast cancer tumors in nude mice.
This study was conducted using tumor cells derived from the MCF-7 breast cancer line. This line is estrogen and progesterone receptor positive, dependent upon hormone and sensitive to antihormones. The tumor cells were inoculated into the flank of ovariectomized, athymic BALB/c Urd nunu mice. The mice were supplemented with slow release estrogen pellets. Animals were given subcutaneous daily injections as indicated below:
Group 1: control (corn oil)
Using calipers, tumors were measured in 2 dimensions, where tumor area=½×w/2×π.

Compound: CC/C(=C(\c1ccccc1)c1ccc(/C=C/C(=O)O)cc1)c1ccccc1 [GW5638]
- inhibition of the partial agonist activity of raloxifene on ER-TAF1 (ER-TAF1; ER-TAF1): inhibited
- inhibition of estradiol- and tamoxifen-induced ER-TAF1 transcriptional activity (ER-TAF1; ER-TAF1, FIG. 2B): capable of inhibiting
- agonist activity on ER-TAF1 (ER-TAF1; ER-TAF1, compound alone, FIG. 1B): functionally inactive
- reversal of the inverse agonist activity of ICI182,780 ([1]; C3 promoter, co-addition with ICI182,780, FIG. 2C): partially reversed
- inhibition of the agonist activity manifested by tamoxifen or estradiol ([1]; ERwt, 10^−8M 17-β-estradiol or tamoxifen, FIG. 2A): inhibited
- agonist / inverse agonist activity on the C3 promoter ([1]; ERwt, compound alone, FIG. 1A/2A): do not demonstrate any agonist or antagonist activity
- inhibition of the agonist activity of estradiol in the uterus ([2]; 21 day old immature rats, in the presence of estradiol): could completely inhibit the agonist activity of estradiol
- uterotrophic activity at 10 μm/kg/d ([2]; rat, in vivo, po): inactive
- effect on tumors compared with tamoxifen [3]: no significant difference
